Experimental data reported in patent US9999222B2, “Herbicidal combination comprising azines” (BASF SE, priority 2014, dated 2018).
“And” between values parts separate entries of the source, which are not always exact repeats. Equal entries are not always repeated.

Columns and labels:
Assay in all cases: Greenhouse test, pre-emergence treatment
AMARE = type: in vivo, Amaranthus retroflexus; settings: application rate 0.25 kg/ha, scale 0 to 100
From the text: (§1) The culture containers used were plastic flowerpots containing loamy sand with approximately 3.0% of humus as the substrate. The seeds of the test plants were sown separately for each species.
(§2) For the pre-emergence treatment, the active ingredients, which had been suspended or emulsified in water, were applied directly after sowing by means of finely distributing nozzles. The containers were irrigated gently to promote germination and growth and subsequently covered with transparent plastic hoods until the plants had rooted. This cover caused uniform germination of the test plants, unless this had been impaired by the active ingredients.
(§3) Depending on the species, the plants were kept at 10-25° C. or 20-35° C., respectively.
(§4) The test period extended over 2 to 4 weeks. During this time, the plants were tended, and their response to the individual treatments was evaluated.
Evaluation was carried out using a scale from 0 to 100. […]
In the examples below, using the method of S. R. Colby (1967) “Calculating synergistic and antagonistic responses of herbicide combinations”, Weeds 15, p. 22ff., the value E, which is expected if the activity of the individual active compounds is only additive, was calculated. […]
(§5) If the value found experimentally is higher than the value E calculated according to Colby, a synergistic effect is present.

SETFA = type: in vivo, Setaria faberi; settings: SETFA, application rate 0.25 kg/ha, scale 0 to 100
From the text: as §1, §2, §3, §4
(§6) Evaluation was carried out using a scale from 0 to 100. 100 means no emergence of the plants, or complete destruction of at least the aerial moieties, and 0 means no damage, or normal course of growth. A moderate herbicidal activity is given at values of at least 60, a good herbicidal activity is given at values of at least 70, and a very good herbicidal activity is given at values of at least 85.
(§7) The respective stated components a and b, and if appropriate, c were formulated as a 10% by weight strength emulsion concentrate and, with addition of the amount of solvent system, introduced into the spray liquor used for applying the active compound.
(§8) In the examples, the solvent used was water.
(§9) In the examples below, using the method of S. R. Colby (1967) “Calculating synergistic and antagonistic responses of herbicide combinations”, Weeds 15, p. 22ff., the value E, which is expected if the activity of the individual active compounds is only additive, was calculated. E=X+Y−(X·Y/100) where • X=percent activity using active compound a at an application rate A; • Y=percent activity using active compound b at an application rate B; • E=expected activity (in %) by a+b at application rates A+B.
as §5

ECHCG = type: in vivo, Echinocloa crus-galli
From the text: as §1, §2, §3, §4, §6, §7, §8, §9, §5

BRADC = type: in vivo, Brachiaria decumbens; settings: pre-emergence
From the text: as §1, §2, §3, §4, §6, §7, §8, §9, §5

ELEIN = type: in vivo, Eleusine indica
From the text: as §1, §2, §3, §4, §6, §7, §8, §9, §5

KCHSC = type: in vivo, Kochia scoparia; settings: pre-emergence
Outline: (§10)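 Seeds were sown in loamy sand with about 3.0% humus, and compounds in water were sprayed immediately after sowing, alone or as combinations formulated as 10% emulsion concentrates. Plants grew under hoods until rooted, at 10-25 °C or 20-35 °C by species, for 2 to 4 weeks. Damage was scored 0-100 (100 = no emergence or complete destruction), and Colby expected values were E=X+Y−(X·Y/100).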

PHACA = type: in vivo, Phalaris canariensis; settings: pre-emergence
From the text: as §1, §2, §3, §4, §6, §7, §8, §9, §5

SETVI = type: in vivo, Setaria viridis
From the text: as §1, §2, §3, §4, §6, §7, §8, §9, §5

AVEFA = type: in vivo, Avena fatua; settings: pre-emergence
From the text: as §1, §2, §3, §4, §6, §7, §8, §9, §5

DIGSA = type: in vivo
ALOMY = type: in vivo, Alopecurus myosuroides; settings: pre-emergence
Outline: as §10

POLCO = type: in vivo, Polygonum convolvulus; settings: pre-emergence, POLCO, 20 DAT
Outline: as §10

LOLMU = type: in vivo, Lolium multiflorum; settings: pre-emergence
From the text: as §1, §2, §3, §4, §6, §7, §8, §9, §5

CC(c1nc(N)nc(Nc2c(F)c(F)cc(F)c2F)n1)C(C)(C)C (stereo not drawn) [Example 7, N4-(2,3,5,6-tetrafluorophenyl)-6-(1,2,2-trimethylpropyl)-1,3,5-triazine-2,4-diamine]
herbicidal activity (AMARE): very good herbicidal activity (a very good herbicidal activity is given at values of at least 85) | herbicidal activity (SETFA): very good herbicidal activity (a very good herbicidal activity is given at values of at least 85) | herbicidal activity (ECHCG; ECHCG, application rate 0.25 kg/ha, scale 0 to 100): very good herbicidal activity (a very good herbicidal activity is given at values of at least 85)

C#CCN1C(=O)C(F)(F)Oc2cc(F)c(-n3c(=O)n(C)c(=S)n(C)c3=O)cc21 [PPO, trifludimoxazin]
observed % activity 20 DAT (BRADC; 25 g ai/ha): 65% | observed % activity 20 DAT (BRADC; 36 g ai/ha): 25% | observed % activity 20 DAT (ELEIN; 18 g ai/ha): 55% | observed % activity 20 DAT (ELEIN; 36 g ai/ha): 90% | observed % activity 20 DAT (KCHSC; KCHSC, use rate 12.5 g ai/ha, 20 DAT): 25% | observed % activity 20 DAT (KCHSC; use rate 12.5 g ai/ha): 25% | observed % activity 20 DAT (KCHSC; use rate 25 g ai/ha): 85% | observed % activity 20 DAT (PHACA; 18 g ai/ha): 45% | observed % activity 20 DAT (PHACA; 25 g ai/ha): 35% | observed % activity 20 DAT (PHACA; 36 g ai/ha, listed as BAS 850 (PPO)): 70% and 65% | observed % activity 20 DAT (PHACA; use rate 12.5 g ai/ha): 85% | observed % activity 20 DAT (SETVI; 18 g ai/ha): 95% | observed % activity 20 DAT (SETVI; 36 g ai/ha): 90% | observed % activity 20 DAT (AVEFA; 25 g ai/ha): 0% | observed % activity 20 DAT (AVEFA; 36 g ai/ha): 15% | observed % activity 20 DAT (AVEFA; 50 g ai/ha): 0% | observed % activity 20 DAT (ECHCG; 18 g ai/ha): 0% | observed % activity 20 DAT (DIGSA; 18 g ai/ha): 85% | observed % activity 20 DAT (DIGSA; 36 g ai/ha): 90% | observed % activity 20 DAT (ALOMY; 25 g ai/ha): 60% | observed % activity 20 DAT (POLCO; use rate 12.5 g ai/ha): 0% | observed % activity 20 DAT (POLCO; use rate 25 g ai/ha): 0% | observed % activity 20 DAT (LOLMU; 25 g ai/ha): 0% | observed % activity 20 DAT (LOLMU; 36 g ai/ha): 35% | observed % activity 20 DAT (LOLMU; 50 g ai/ha): 55%

CC(C)N(C(=O)SCC(Cl)=C(Cl)Cl)C(C)C [Tri-allate, triallate]
inhibition at 200 g/ha (BRADC; Urochloa decumbens, 480 h, 200 g ai/ha, read-out: observed % activity 20 DAT): 0% | inhibition at 400 g/ha (ELEIN; Eleusine indica, 480 h, 400 g ai/ha, read-out: observed % activity 20 DAT): 0% | inhibition at 200 g/ha (PHACA; Phalaris canariensis, 480 h, 200 g ai/ha, read-out: observed % activity 20 DAT): 0% | inhibition at 400 g/ha (PHACA; Phalaris canariensis, 480 h, 400 g ai/ha, read-out: observed % activity 20 DAT): 0% | inhibition at 200 g/ha (AVEFA; Avena fatua, 480 h, 200 g ai/ha, read-out: observed % activity 20 DAT): 45% | inhibition at 400 g/ha (AVEFA; Avena fatua, 480 h, 400 g ai/ha, read-out: observed % activity 20 DAT): 75% | inhibition at 400 g/ha (DIGSA; Digitaria sanguinalis, 480 h, 400 g ai/ha, read-out: observed % activity 20 DAT): 0% | inhibition at 400 g/ha (ALOMY; Alopecurus myosuroides, 480 h, 400 g ai/ha, read-out: observed % activity 20 DAT): 5%
